Reference: patent US20140154702A1, “Methods For Treating Cancer Using Combination Therapies” (ENDOCYTE, INC., priority 2012, published 2014)
“Also recorded” adds a separate entry of the source. Like-named read-outs stand apart in the source and are kept apart here.

Tests used:
Type in all cases: cell-based
KB cells [1] = assay: Inhibition of non-FR-specific activity (cytotoxicity) of EC0531 by co-administered inhibitors, KB cells; conditions: for IC50: read-out: IC50 of inhibition of non-FR-specific activity of EC0531
Description: Extracellular thiol activity was determined using the DTNB method described above. […] Cells were seeded in 24-well tissue culture-treated plates at 1×10^5 cells per well and allowed to attach overnight at 37° C. […] To assess non-FR-targeted activity in FR+cells, 100 μM FA was included as a competitor along with the drug in the treatment solutions. Cells were incubated for 2 hours in the presence of drug, washed 3 times with media, and then chased in 0.5 mL of FDRPMI/HIFBS (FR+cells) or RPMI+FA/HIFBS (FR−cells) to 72 h at 37° C. Spent medium was then aspirated from the wells, and cells were incubated with 1 μCi/mL ^3H-thymidine for 4 hours at 37° C., washed two times with PBS, pH 7.4, then treated with 0.4 mL 5% trichloroacetic acid per well. After 15 minutes, the trichloroacetic acid was aspirated from the wells, and cells were solubilized in 0.5 mL 0.25 N sodium hydroxide. Each sample (450 μL) was transferred to a scintillation vial containing 3 mL of Ecolite+scintillation cocktail and then counted in a liquid scintillation counter (LSC). Final results were expressed as percentage of ^3H-thymidine incorporation relative to an untreated control (non-competed groups) or FA control (competed groups).
The inhibition of non-FR-specific activity (i.e., cytotoxicity) was evaluated for each thiol inhibitor.
Cells were seeded in 24-well tissue culture-treated plates at 1×10^5 cells per well and allowed to attach overnight at 37° C. […] Cells were incubated for 2 hours in the presence of drug, competitor, and inhibitor, washed 3 times with media, and then chased in 0.5 mL of FDRPMI/HIFBS to 72 hours at 37° C. Cells were then treated as described above to determine ^3H-thymidine incorporation. Final results were expressed as percentage of ^3H-thymidine incorporation relative to an untreated control (non-competed groups) or FA control (competed groups).
The inhibition of non-FR-specific activity (i.e., cytotoxicity) was evaluated. KB cells were seeded in 24-well tissue culture-treated plates at 1×10^5 cells per well in FDRPMI/HIFBS and allowed to attach to the plates overnight at 37° C. […] Cells were incubated for 2 hours in the presence of drug, FA competitor, and inhibitor, washed 3 times with media, then chased in 0.5 mL of FDRPMI/HIFBS to 72 hours at 37° C. Cells were then treated as described above to determine ^3H-thymidine incorporation. Final results were expressed as percentage of ^3H-thymidine incorporation relative to an untreated control (non-competed groups) or FA control (competed groups). […]

A549 cells [2] = assay: Extracellular thiol activity (DTNB method), A549 cells; conditions: for effect of added thiol on extracellular thiol activity (SH concentration): added to SH-free RPMI: GSSG (1.6 μM), cysteine (189 μM), 2 hours, FIG. 11; for effect on release of extracellular thiols (SH concentration): glutamate (5 mM), quisqualic acid (0.3 mM and 1 mM), 2 hours at 37° C., FIG. 12
KB cells [3] = assay: 3H-EC0531 uptake study, KB cells; conditions: for effect of inhibitor on nonspecific uptake of 3H-EC0531: 1 μM EC0531 plus inhibitor, 100 μM FA, 2 hours at 37° C.
Description: (§1) To determine non-FR-targeted uptake, 100 μM FA was included in the uptake solutions. Cells were incubated with 0.5 mL of uptake solution for 2 h at 37° C., washed 3 times with ice-cold PBS, and were solubilized in 0.5 mL 1% SDS in PBS, pH 7.4. Cell lysates (450 μL) were added to 3 mL Ecolite+scintillation cocktail and counted in a liquid scintillation counter. Protein concentrations of the remaining lysates were determined using the BCA Protein Assay (Pierce, Rockford, Ill.). Molecules per cell were calculated based on DPM values and previously determined cellular protein conversion factors (2.82×10^−7 and 2.23×10^−7 mg protein per cell for KB and A549, respectively).
(§2) FA at a concentration of 100 μM was used as a competitor to determine non-FR-specific uptake in KB cells. Wells were then washed 3 times with 1 mL of ice-cold PBS, pH 7.4 and were processed for LSC analysis as described above.
(§3) Wells were then washed 3 times with 1 mL of ice-cold PBS, pH 7.4 and were processed for LSC analysis as described above.

A549 cells [4] = assay: 3H-EC0531 uptake study, A549 cells; conditions: for effect of inhibitor on nonspecific uptake of 3H-EC0531: 1 μM EC0531 plus inhibitor, 2 hours at 37° C.
Description: as §1, §2, §3

KB cells [5] = assay: Inhibition of non-FR-specific activity (cytotoxicity) of EC0531 by co-administered inhibitors, KB cells; conditions: KB cells pre-treated with inhibitor prior to EC0531 and folic acid; DTNB (100 μM), NCEM (10 mM); FIG. 6
A549 cells [6] = assay: Inhibition of non-FR-specific activity (cytotoxicity) of EC0531 by co-administered inhibitors, A549 cells; conditions: sulfasalazine (1 mM), glutamate (5 mM) with increasing EC0531, 2 hours, chase to 72 hours, FIG. 14
Description: Cells were then treated as described above to determine ^3H-thymidine incorporation. The inhibition of non-FR-specific activity (i.e., cytotoxicity) was evaluated for each system xc^− inhibitor.

[7] = DTNB 10 μM and 100 μM, excess folic acid, FIG. 8
[8] = KB cells, co-administered with EC0531 (1 μM) and folic acid (100 μM)
[9] = inhibitor concentration 3 mM, co-administration with EC0531
[10] = inhibitor concentration 100 μM, co-administration with EC0531
[11] = KB cells, co-administered with EC0531 (1 μM) and folic acid (100 μM), 2 hours, 72 hour chase

O=C1OC(c2ccc(O)c(S(=O)(=O)O)c2)(c2ccc(O)c(S(=O)(=O)O)c2)c2c(Br)c(Br)c(Br)c(Br)c21 [BSP]
Inhibition of EC0531 Nonspecific Activity (KB cells [1]): <50% inhibition

N[C@@H](CS)C(=O)O [Cysteine, cysteine]
effect of added thiol on extracellular thiol activity (SH concentration) (A549 cells [2]): responsible for stimulation

O=S(=O)(O)c1cc(N=C=S)ccc1C=Cc1ccc(N=C=S)cc1S(=O)(=O)O [DIDS]
effect of inhibitor on nonspecific uptake of 3H-EC0531 (KB cells [3]): reduced
effect of inhibitor on nonspecific uptake of 3H-EC0531 (A549 cells [4]): reduced
Inhibition of EC0531 Nonspecific Activity (KB cells [1]): Full inhibition

O=C(O)c1cc(SSc2ccc([N+](=O)[O-])c(C(=O)O)c2)ccc1[N+](=O)[O-] [DTNB, 5,5′-dithiobis(2-nitrobenzoic acid)]
effect of inhibitor on nonspecific uptake of 3H-EC0531 (KB cells [3]): reduced
effect of inhibitor on nonspecific uptake of 3H-folic acid (KB cells [3]; [7]): mostly unaffected
inhibition of non-FR-specific activity of EC0531 by pre-treatment of cells (KB cells [5]): not effective
effect of inhibitor on nonspecific uptake of 3H-EC0531 (A549 cells [4]): reduced
effect of inhibitor on nonspecific uptake of 3H-folic acid (A549 cells [4]; [7]): mostly unaffected
inhibition of non-FR-specific activity of EC0531 (in words) (KB cells [1]; [8]): dose-responsive inhibition
Inhibition of EC0531 Nonspecific Activity (KB cells [1]; inhibitor concentration 10 μM, co-administration with EC0531): Full inhibition
IC50 (KB cells [1]): 4.6 µM

O=S(=O)([O-])CCSSCCS(=O)(=O)[O-].[Na+].[Na+] [Dimesna, 2,2′-dithio-bis-ethanesulfonate]
Inhibition of EC0531 Nonspecific Activity (KB cells [1]): Full inhibition

N[C@@H](CCC(=O)N[C@@H](CSCC(=O)Nc1ccc([As](O)O)cc1)C(=O)NCC(=O)O)C(=O)O [EC1277 (GSAO), 4-(N—(S-glutathionylacetyl)amino) phenylarsonous acid]
Inhibition of EC0531 Nonspecific Activity (KB cells [1]; [9]): Full inhibition

O=C(O[C@@H]1Cc2c(O)cc(O)cc2O[C@@H]1c1cc(O)c(O)c(O)c1)c1cc(O)c(O)c(O)c1 [EGCg, epigallocatechin gallate]
Inhibition of EC0531 Nonspecific Activity (KB cells [1]; 100 µM): >50% inhibition

O=C(O)CCN1C(=O)C=CC1=O [NCEM, N-(2-carboxyethyl)maleimide]
effect of inhibitor on nonspecific uptake of 3H-EC0531 (KB cells [3]): reduced
inhibition of non-FR-specific activity of EC0531 by pre-treatment of cells (KB cells [5]): not effective
effect of inhibitor on nonspecific uptake of 3H-EC0531 (A549 cells [4]): reduced
inhibition of non-FR-specific activity of EC0531 (in words) (KB cells [1]; [8]): dose-responsive inhibition
Inhibition of EC0531 Nonspecific Activity (KB cells [1]; [10]): Full inhibition
IC50 (KB cells [1]; [11]): 17 µM

N[C@@H](CCC(=O)O)C(=O)O [glutamate]
effect on release of extracellular thiols (SH concentration) (A549 cells [2]): significantly reduce
inhibition of non-FR-specific activity of EC0531 (in words) (A549 cells [6]): inhibit

CN(Cc1cnc2nc(N)nc(N)c2n1)c1ccc(C(=O)N[C@@H](CCC(=O)O)C(=O)O)cc1 [methotrexate]
effect of inhibitor on nonspecific uptake of 3H-EC0531 (KB cells [3]): ineffective
effect of inhibitor on nonspecific uptake of 3H-EC0531 (A549 cells [4]): ineffective

O=S(=O)([O-])c1cc[c]([Hg][Cl])cc1 [pCMBS, p-chloromercuribenzene sulfonate]
Inhibition of EC0531 Nonspecific Activity (KB cells [1]; [10]): >50% inhibition

N[C@@H](Cn1oc(=O)[nH]c1=O)C(=O)O [quisqualic acid]
effect on release of extracellular thiols (SH concentration) (A549 cells [2]): significantly reduce; also recorded: dose-dependent reduction

O=C(O)c1cc(/N=N/c2ccc(S(=O)(=O)Nc3ccccn3)cc2)ccc1O [sulfasalazine]
effect of inhibitor on nonspecific uptake of 3H-EC0531 (KB cells [3]): reduced
effect of inhibitor on nonspecific uptake of 3H-EC0531 (A549 cells [4]): reduced
inhibition of non-FR-specific activity of EC0531 (in words) (KB cells [1]; [8]): dose-responsive inhibition
IC50 (KB cells [1]; [11]): 170 µM
inhibition of non-FR-specific activity of EC0531 (in words) (A549 cells [6]): inhibit; also recorded: greater inhibition

folate-maleimide
inhibition of non-FR-specific activity of EC0531 (in words) (KB cells [1]; [8]): dose-responsive inhibition
Inhibition of EC0531 Nonspecific Activity (KB cells [1]; [10]): Full inhibition
IC50 (KB cells [1]; [11]): 3.5 µM

methoxy-PEG5000-vinylsulfone
Inhibition of EC0531 Nonspecific Activity (KB cells [1]; [9]): >50% inhibition

oxidized glutathione [GSSG]
effect of added thiol on extracellular thiol activity (SH concentration) (A549 cells [2]): no effect
Inhibition of EC0531 Nonspecific Activity (KB cells [1]): Full inhibition
